Legend:
[1] = molecular target: T1, Suppressor of tumorigenicity 14 protein (Homo sapiens, UniProt Q9Y5Y6); assay: Inhibition of matriptase
T1 sequence (Q9Y5Y6 whole entry): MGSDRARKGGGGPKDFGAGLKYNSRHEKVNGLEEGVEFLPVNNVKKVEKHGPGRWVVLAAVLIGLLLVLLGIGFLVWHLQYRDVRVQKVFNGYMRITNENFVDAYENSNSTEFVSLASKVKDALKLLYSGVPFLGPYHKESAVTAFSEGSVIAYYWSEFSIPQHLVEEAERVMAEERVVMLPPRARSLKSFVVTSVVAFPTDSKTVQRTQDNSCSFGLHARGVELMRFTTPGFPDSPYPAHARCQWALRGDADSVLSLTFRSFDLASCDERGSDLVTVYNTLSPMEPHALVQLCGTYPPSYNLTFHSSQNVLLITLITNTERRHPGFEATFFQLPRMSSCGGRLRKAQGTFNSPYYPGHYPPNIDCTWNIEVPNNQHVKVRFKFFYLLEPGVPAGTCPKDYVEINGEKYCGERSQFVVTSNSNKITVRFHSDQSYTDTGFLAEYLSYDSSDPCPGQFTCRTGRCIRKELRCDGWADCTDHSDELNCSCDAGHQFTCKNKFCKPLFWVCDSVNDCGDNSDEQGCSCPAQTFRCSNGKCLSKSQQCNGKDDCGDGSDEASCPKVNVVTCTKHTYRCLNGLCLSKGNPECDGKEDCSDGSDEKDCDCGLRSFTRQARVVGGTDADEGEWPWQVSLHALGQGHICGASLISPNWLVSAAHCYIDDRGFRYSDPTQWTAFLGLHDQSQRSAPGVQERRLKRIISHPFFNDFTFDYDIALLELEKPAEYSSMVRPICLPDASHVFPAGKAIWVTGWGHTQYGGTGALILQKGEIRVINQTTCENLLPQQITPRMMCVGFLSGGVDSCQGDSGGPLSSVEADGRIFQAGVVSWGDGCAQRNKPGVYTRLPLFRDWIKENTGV

[2] = molecular target: Prothrombin (Homo sapiens, UniProt P00734); assay: Inhibition of thrombin
[3] = molecular target: Plasminogen (Homo sapiens, UniProt P00747); assay: Inhibition of plasmin
Sequence of Plasminogen (P00747 97-580 limits assumed): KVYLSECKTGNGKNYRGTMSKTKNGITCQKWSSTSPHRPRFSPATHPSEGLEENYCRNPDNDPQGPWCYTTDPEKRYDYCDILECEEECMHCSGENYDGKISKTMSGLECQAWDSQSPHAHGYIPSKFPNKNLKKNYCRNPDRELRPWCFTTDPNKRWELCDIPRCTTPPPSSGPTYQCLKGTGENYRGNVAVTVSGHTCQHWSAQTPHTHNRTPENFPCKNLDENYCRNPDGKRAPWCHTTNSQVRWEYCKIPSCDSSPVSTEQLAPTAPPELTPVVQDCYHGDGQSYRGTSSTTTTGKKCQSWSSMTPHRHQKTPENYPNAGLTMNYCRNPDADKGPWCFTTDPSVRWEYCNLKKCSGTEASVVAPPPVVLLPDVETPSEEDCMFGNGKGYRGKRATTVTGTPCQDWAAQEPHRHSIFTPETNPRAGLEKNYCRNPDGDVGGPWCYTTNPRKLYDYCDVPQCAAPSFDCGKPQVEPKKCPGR
Sequence of Plasminogen (P00747 581-810 limits assumed): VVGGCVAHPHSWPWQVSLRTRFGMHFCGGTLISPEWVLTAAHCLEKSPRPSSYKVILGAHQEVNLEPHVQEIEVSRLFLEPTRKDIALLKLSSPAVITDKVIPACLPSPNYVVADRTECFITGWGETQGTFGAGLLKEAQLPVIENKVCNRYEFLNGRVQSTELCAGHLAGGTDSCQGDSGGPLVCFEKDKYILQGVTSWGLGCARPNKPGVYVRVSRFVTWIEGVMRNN

[4] = molecular target: Urokinase-type plasminogen activator (Homo sapiens, UniProt P00749); assay: Inhibition of uPA
[5] = molecular target: Coagulation factor X (Homo sapiens, UniProt P00742); assay: Inhibition of factor 10a
Sequence of Coagulation factor X (P00742 41-179 limits assumed): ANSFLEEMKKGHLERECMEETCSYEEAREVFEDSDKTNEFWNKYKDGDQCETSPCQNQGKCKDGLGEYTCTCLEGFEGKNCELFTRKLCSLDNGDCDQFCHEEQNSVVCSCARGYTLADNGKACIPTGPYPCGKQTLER
Sequence of Coagulation factor X (P00742 235-488 limits assumed): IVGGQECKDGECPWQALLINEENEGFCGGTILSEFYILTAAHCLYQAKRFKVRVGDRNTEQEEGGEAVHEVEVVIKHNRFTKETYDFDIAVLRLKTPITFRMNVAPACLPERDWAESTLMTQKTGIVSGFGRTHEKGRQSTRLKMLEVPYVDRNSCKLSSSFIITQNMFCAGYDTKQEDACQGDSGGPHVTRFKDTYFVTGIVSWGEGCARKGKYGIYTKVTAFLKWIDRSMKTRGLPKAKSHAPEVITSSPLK

Structure (SMILES) | Ki [1] | Ki [2] | Ki [3] | Ki [4] | Ki [5]
N=C(N)c1cccc(C[C@H](NS(=O)(=O)c2cccc(NC(=O)CCN)c2)C(=O)N2CCC(CCN)CC2)c1 | 0.0038 µM | – | – | – | –
NCCC(=O)Nc1cccc(S(=O)(=O)N[C@@H](CCc2ccccc2)C(=O)N2CCC(CCN)CC2)c1 | > 1000 µM | – | – | – | –
NCCC(=O)Nc1cccc(S(=O)(=O)N[C@@H](Cc2cccc(CN)c2)C(=O)N2CCC(CCN)CC2)c1 | – | > 1000 µM | 16 µM | > 1000 µM | 92 µM
CCC(=O)Nc1cccc(S(=O)(=O)N[C@@H](Cc2cccc(C(=N)N)c2)C(=O)N2CCC(CCN)CC2)c1 | 0.18 µM | 1.9 µM | 3.5 µM | 8.1 µM | 20 µM
CCOC(=O)Nc1cccc(S(=O)(=O)N[C@@H](Cc2cccc(C(=N)N)c2)C(=O)N2CCC(CCN)CC2)c1 | 0.041 µM | 1.2 µM | 2.1 µM | 3.2 µM | 14 µM
N=C(N)c1cccc(C[C@H](NS(=O)(=O)c2cccc(NC(=O)C3CNC3)c2)C(=O)N2CCC(CCN)CC2)c1 | 0.003 µM | 5.1 µM | 0.5 µM | 3.7 µM | 11.2 µM
NCCC(=O)Nc1cccc(S(=O)(=O)N[C@@H](Cc2ccc(CN)cc2)C(=O)N2CCC(CCN)CC2)c1 | 2.8 µM | 325 µM | 64.8 µM | > 1000 µM | 430 µM
N=C(N)c1cccc(C[C@H](NS(=O)(=O)c2cccc(CCCCN)c2)C(=O)N2CCC(CCN)CC2)c1 | 0.001 µM | 0.46 µM | 0.2 µM | 3.8 µM | 4.4 µM
N=C(N)c1cccc(C[C@H](NS(=O)(=O)c2cccc(C3CCC(N)=NC3)c2)C(=O)N2CCC(CCN)CC2)c1 (stereo partly specified) | 8e-05 µM | 0.52 µM | 0.028 µM | 6.6 µM | 0.01 µM
N=C(N)c1cccc(C[C@H](NS(=O)(=O)c2cccc(NCCCN)c2)C(=O)N2CCC(CCN)CC2)c1 | 0.0067 µM | 2.2 µM | 0.46 µM | 5.2 µM | 8 µM
Cc1nccc(-c2cccc(S(=O)(=O)N[C@@H](Cc3cccc(C(=N)N)c3)C(=O)N3CCC(CCN)CC3)c2)n1 | – | 0.31 µM | 0.21 µM | 8.7 µM | 1.7 µM
N=C(N)c1cccc(C[C@H](NS(=O)(=O)c2cccc(NC(=O)CCO)c2)C(=O)N2CCC(CCN)CC2)c1 | – | 5.5 µM | 2.6 µM | 3 µM | 61 µM
NCCC(=O)Nc1cccc(S(=O)(=O)N[C@@H](Cc2ccccc2)C(=O)N2CCC(CCN)CC2)c1 | 10 µM | – | – | – | –
NCCC(=O)Nc1cccc(S(=O)(=O)N[C@@H](CCCc2ccccc2)C(=O)N2CCC(CCN)CC2)c1 | > 1000 µM | – | – | – | –
COc1ccc(-c2cccc(S(=O)(=O)NC(Cc3cccc(C(=N)N)c3)C(=O)N3CCC(CCN)CC3)c2)cc1OC (racemic) | – | 1.1 µM | 0.23 µM | 14 µM | 0.42 µM
COc1ccc(-c2cccc(S(=O)(=O)NC(Cc3cccc(CN)c3)C(=O)N3CCC(CCN)CC3)c2)cc1 (racemic) | – | 9.8 µM | 0.776 µM | 129 µM | 55 µM
CC(C)Oc1ccc(-c2cccc(S(=O)(=O)NC(Cc3cccc(C(=N)N)c3)C(=O)N3CCC(CCN)CC3)c2)cc1 (racemic) | – | 0.24 µM | 0.08 µM | 9.6 µM | 3.4 µM
N=C(N)c1cccc(CC(NS(=O)(=O)c2cccc(-c3ccc4[nH]ccc4c3)c2)C(=O)N2CCC(CCN)CC2)c1 (racemic) | – | 0.19 µM | 0.38 µM | 6.2 µM | 0.15 µM
CCOc1ccc(-c2cccc(S(=O)(=O)NC(Cc3cccc(C(=N)N)c3)C(=O)N3CCC(CCN)CC3)c2)cc1 (racemic) | 0.006 µM | 0.45 µM | 0.15 µM | 8.6 µM | 0.66 µM

The next lines start with the values.

Ki [1] | Ki [2] | Ki [3] | Ki [4] | Ki [5] | Structure (SMILES)
0.0016 µM | 0.11 µM | 0.23 µM | 3.6 µM | 0.25 µM | N=C(N)c1cccc(C[C@H](NS(=O)(=O)c2cccc(-c3ccc(N)nc3)c2)C(=O)N2CCC(CCN)CC2)c1
0.007 µM | 0.04 µM | 0.12 µM | 10 µM | 0.36 µM | COc1ccc(-c2cccc(S(=O)(=O)NC(Cc3cccc(C(=N)N)c3)C(=O)N3CCC(CCN)CC3)c2)cc1 (racemic)
– | 0.033 µM | 0.214 µM | 6.9 µM | 0.63 µM | CCc1ccc(-c2cccc(S(=O)(=O)NC(Cc3cccc(C(=N)N)c3)C(=O)N3CCC(CCN)CC3)c2)cc1 (racemic)
0.11 µM | 0.056 µM | 0.55 µM | 8.3 µM | 5.4 µM | N=C(N)c1cccc(CC(NS(=O)(=O)c2cccc(-c3ccccc3)c2)C(=O)N2CCC(CCN)CC2)c1 (racemic)
– | 0.051 µM | 0.334 µM | 12 µM | 5.6 µM | N=C(N)c1cccc(CC(NS(=O)(=O)c2cccc(-c3cccc(Cl)c3)c2)C(=O)N2CCC(CCN)CC2)c1 (racemic)
– | 0.16 µM | 0.11 µM | 3.7 µM | 1.6 µM | N=C(N)c1cccc(CC(NS(=O)(=O)c2cccc(-c3ccncc3)c2)C(=O)N2CCC(CCN)CC2)c1 (racemic)
– | 0.15 µM | 1 µM | 11 µM | 3.5 µM | N=C(N)c1cccc(CC(NS(=O)(=O)c2cccc(-c3cccnc3)c2)C(=O)N2CCC(CCN)CC2)c1 (racemic)
– | 0.011 µM | 0.085 µM | 12 µM | 0.7 µM | N=C(N)c1cccc(CC(NS(=O)(=O)c2cccc(-c3ccccc3Cl)c2)C(=O)N2CCC(CCN)CC2)c1 (racemic)
– | 0.01 µM | 0.183 µM | 11 µM | 0.91 µM | N=C(N)c1cccc(CC(NS(=O)(=O)c2cccc(-c3ccc(Cl)cc3)c2)C(=O)N2CCC(CCN)CC2)c1 (racemic)
